# Experimental data reported in patent publication US20250249025A1, “DRUG DELIVERY CARRIER UTILIZING PROPERTY OF D-ALLOSE BEING UPTAKEN BY CANCER CELL, DRUG DELIVERY METHOD, AND COMPOSITION FOR TREATING RENAL CELL CARCINOMA” (NATIONAL UNIVERSITY CORPORATION KAGAWA UNIVERSITY, priority 2019, published 2025).
# How the values were obtained:
# Caki-I tumor tissue = assay: Tumor tissue histology (necrosis area, nuclear fission), Caki-I xenograft mouse model; assay type: in vivo, mice; conditions: day 35
# Experimental: The experiment of the present example used two human renal cell carcinoma cell lines (Caki-I and ACHN). Each cell was cultured under the wet environment of 37° C. and 5% CO2 by using a RPMI-1640 culture solution (2000 mg D-glucose/L) containing a 10% fetal calf serum, a HEPES buffer, and penicillin-streptomycin.
# With respect to a renal cell carcinoma xenograft mouse model, a 1.0×10^5 cells/ml of a cell suspension was obtained by adjusting the cultured cells with a MEM culture solution and then 0.1 ml of the resulting suspension was injected into the femoral subcutaneous tissue of Female athymic nude mice (BALB/c-nu/nu, 6-week-old). After checking that the tumor volume was 200 mm^3 or more one week after the injection, the mice were provided for the experiment thereafter.
# (§1) The day when the tumor size of the renal cell carcinoma xenograft mouse models became 200 mm^3 or more was called day 0 and the intraperitoneal injection of a D-allose-containing solution was started from day 1. The solution injected is 0.4 mL of physiological saline or a solution obtained by dissolving 100 mg/kg or 400 mg/kg of D-allose in 0.4 mL physiological saline. The resulting solution was intraperitoneally injected into three groups of mice (Control, 100 mg/kg of D-allose, and 400 mg/kg of D-allose) once a day for 5 weeks in total. The body weight of the mice and the long and short diameters of the tumor were measured over time twice a week. It is to be noted that the tumor volume was obtained as a product of long diameter×short diameter×short diameter of the tumor×0.5. On day 35 after the intraperitoneal injection was started, the tumor as well as the liver and kidney were excised from the mice and provided for the experiment performed thereafter.
# The tissue of the excised tumor, kidney, and liver was fixed with a 4% paraformaldehyde phosphate buffer, embedded with paraffin, and sliced into a 4-μm thick section. The resulting sliced section was stained with hematoxylin and eosin and evaluated by a medical specialist in pathology. The influence of D-allose on the tumor tissue was evaluated by a necrosis area (%) and an image of the number of nuclear fissions (Cells/HPF). It is to be noted that the necrosis area was measured using an image recording software Nikon NIS—Elements D and figures after the decimal point were omitted. On the other hand, the number of nuclear fissions was obtained as an average of those of three fields of view and figures after the decimal point were also omitted. The anti-tumor effect of D-allose, more specifically, necrosis area and the number of nuclear fissions in the renal cell carcinoma xenograft mouse model are shown in Table 10.
# [1] = system: human prostate carcinoma cell line PC-3; assay: Rare sugar uptake experiment, sugar content in disrupted cell suspension of PC-3; assay type: cell-based
# Experimental: (§2) An uptake amount of a rare sugar, which had been added to a medium, into carcinoma cells was analyzed using the cell lines of three types of cancers. As the rare sugar, four kinds, that is, D-allose, D-allulose (D-psicose), L-allulose (L-psicose), and allitol were used, while D-glucose and fructose were used as a monosaccharide which was not a rare sugar.
# (§3) Cells of each of the cell lines were cultured in RPMI-1640 media and during culturing, six sugars were each added to the resulting media and cultured. After culturing, an amount of each sugar taken up into the cells was analyzed. The medium to which no sugar was added during culturing was used as a control.
# (§4) Used were human bladder carcinoma cell lines (RT112, 253), and J82), human prostatic carcinoma cell lines (LNCa, Du145, and PC-3), and human renal cell carcinoma cell lines (ACHN, Caki-I, and Caki-II).
# (§5) After cells were cultured in RPMI-1640 (2000 mg D-glucose/L) media, the above monosaccharides and rare sugars were added to the resulting media, respectively. Described specifically, they were following seven combinations: RPMI-1640 alone (control), RPMI-1640+D-glucose, RPMI-1640+L-allulose, RPMI-1640+D-allulose, RPMI-1640+D-fructose, RPMI-1640+D-allose, and RPMI-1640+D-allitol. The final concentration of the sugar in the medium was adjusted to 10 mM and no sugar was added in the control.
# (§6) Five-ml portions of a 3.0×10^4 cells/ml cell suspension prepared using RPMI-1640 were seeded in dishes having a diameter of 6 cm (1.5×10^5 cells/dish) and cultured for 24 hours in the RPMI-1640 medium containing 2000 mg/l of D-glucose as a nutrient source. Twenty-four hours later, the media were changed to the culture solutions containing the monosaccharides and rare sugars described above in 2), respectively, followed by culturing for 48 hours.
# (§7) After culturing for 48 hours, the attached human carcinoma cells were mechanically separated and collected in a Spitz tube together with the culture solution and floating cells. After the supernatant formed by centrifugation (4° C., 1200 rpm, and 5 minutes) was removed to obtain cell pellets alone, 5 ml of a phosphate buffer physiological saline (PBS) was added for the purpose of washing to obtain a cell suspension of the cell pellets. A gain, the resulting cell suspension was centrifuged at 4° C. and 1200 rpm for 5 minutes and the supernatant was removed. To the cell pellets after washing was added 1 ml of pure water to suspend them therein. Ultrasonic disruption (intensity: 40%, 30 seconds) was then performed and the monosaccharide in the disrupted cell suspension was labeled with ABEE, followed by analysis by HPLC. From the area thus obtained, the sugar content in the cells was determined using a calibration curve. With respect to the ketose, two peaks were found after labeling with ABEE so that the sugar content in the cells was determined from the calibration curves of both peaks.
# [2] = system: human prostate carcinoma cell line LNCa; assay: Rare sugar uptake experiment, sugar content in disrupted cell suspension of LNCa; assay type: cell-based
# Experimental: as §2, §3, §4, §5, §6, §7
# kidney tissue = assay: Kidney tissue histology in renal cell carcinoma xenograft mouse models; assay type: in vivo; conditions: xenograft mice, intraperitoneal once a day, day 35; diagnosis by a medical specialist in pathology; FIG. 7
# Experimental: as §1, with “On day 35 after the intraperitoneal injection was started, the tumor as well as the liver and kidney were excised from the mice and provided for the experiment performed thereafter.” left out
# The tissue of the excised tumor, kidney, and liver was fixed with a 4% paraformaldehyde phosphate buffer, embedded with paraffin, and sliced into a 4-μm thick section. The resulting sliced section was stained with hematoxylin and eosin and evaluated by a medical specialist in pathology. The influence of D-allose on the tumor tissue was evaluated by a necrosis area (%) and an image of the number of nuclear fissions (Cells/HPF). It is to be noted that the necrosis area was measured using an image recording software Nikon NIS—Elements D and figures after the decimal point were omitted. […]
# [3] = system: human bladder carcinoma cell line 253J; assay: Rare sugar uptake experiment, sugar content in disrupted cell suspension of 253J; assay type: cell-based
# Experimental: as §2, §3, §4, §5, §6, §7
# [4] = system: human prostate carcinoma cell line Du145; assay: Rare sugar uptake experiment, sugar content in disrupted cell suspension of Du145; assay type: cell-based
# Experimental: as §2, §3, §4, §5, §6, §7
# [5] = system: human bladder carcinoma cell line RT112; assay: Rare sugar uptake experiment, sugar content in disrupted cell suspension of RT112; assay type: cell-based
# Experimental: as §2, §3, §4, §5, §6, §7
# [6] = 100 mg/kg intraperitoneal once a day
# [7] = 400 mg/kg intraperitoneal once a day
smiles,measurement,setting,value
O=C[C@H](O)[C@H](O)[C@H](O)[C@H](O)CO [D-allose],Necrosis area,Caki-I tumor tissue; [6],22%
same,Nuclear fission,Caki-I tumor tissue; [6],0.9 Cells/HPF
same,Necrosis area,Caki-I tumor tissue; [7],33%
same,Nuclear fission,Caki-I tumor tissue; [7],1 Cells/HPF
same,D-glucose content in cell,"[1]; PC-3, named sugar added to RPMI-1640 at 10 mM, 48 hours, HPLC after ABEE labeling",3.8 µg
same,Content in cell of the added sugar,"[1]; human, 48 h, 10 mM",7.5 µg
same,D-glucose content in cell,"[2]; LNCa, named sugar added to RPMI-1640 at 10 mM, 48 hours, HPLC after ABEE labeling",11.2 µg
same,Content in cell of the added sugar,"[2]; human, 48 h, 10 mM",0.0 µg
same,Influence on the kidney tissue,kidney tissue,No influence
same,D-glucose content in cell,"[3]; 253J, named sugar added to RPMI-1640 at 10 mM, 48 hours, HPLC after ABEE labeling",11.5 µg
same,Content in cell of the added sugar,"[3]; human, 48 h, 10 mM",0.0 µg
same,D-glucose content in cell,"[4]; Du145, named sugar added to RPMI-1640 at 10 mM, 48 hours, HPLC after ABEE labeling",16.2 µg
same,Content in cell of the added sugar,"[4]; human, 48 h, 10 mM",0.0 µg
same,D-glucose content in cell,"[5]; RT112, named sugar added to RPMI-1640 at 10 mM, 48 hours, HPLC after ABEE labeling",9.7 µg
same,Content in cell of the added sugar,"[5]; human, 48 h, 10 mM",0.0 µg
